Source: article PMC5301048, “Selection and early clinical evaluation of the brain‐penetrant 11β‐hydroxysteroid dehydrogenase type 1 (11β‐HSD1) inhibitor UE2343 (Xanamem™)” (British Journal of Pharmacology, 2017)
≈ marks a conversion by molar mass, not a printed value. Read-outs that look alike come from different tables or passages of the source.

Columns and labels:
[1] = Single ascending dose study, pharmacokinetics; format: in vivo; conditions: human; for half-life / Cmax / Tmax / CL renal: both sexes; for half-life / Cmax / Tmax: plasma; for Tmax: median (range); for CL renal: urine and plasma
Procedure: A double‐blind, randomized, placebo‐controlled single ascending dose study was carried out at Simbec Research Ltd, Merthyr Tydfil, UK. Each cohort consisted of six healthy male subjects and two females of non‐child bearing potential. Two male ‘dose leader’ subjects (1 active : 1 placebo) were dosed first in each cohort. The remainder of the cohort (5 active : 1 placebo) were dosed 24 h later. Dose cohorts were 2, 5, 10, 18, 25 and 35 mg. Safety, pharmacokinetic and pharmacodynamic assessments were made at pre‐determined time‐points during each part of the study. Dose escalation was dependent upon satisfactory review of the blinded safety (up to Day 6) and pharmacokinetic (up to 24 h post‐dose) data from the preceding cohort.
Laboratory evaluation of clinical safety parameters was carried out using standard validated methods. Measurement of plasma pharmacodynamic markers [adrenocorticotropic hormone (ACTH), cortisol, 4‐androstenedione, testosterone and dehydroepiandrosterone sulphate (DHEA‐s)] was carried out using commercially available kits. Each method was fully validated prior to analysis. Urinary steroid metabolites were measured according to established methods (Boonen et al., 2013). UE2343 levels in plasma, urine and CSF was determined by LC–MS/MS using fully validated methods.
The data and statistical analysis comply with the recommendations on experimental design and analysis in pharmacology (Curtis et al., 2015). Levels of probability, P < 0.05 were deemed to constitute the threshold for statistical significance. Pharmacokinetic parameters, except Tmax (time of maximum observed drug concentration), are given as mean ± coefficient of variation (CV%). Tmax is given as median ± range. For each of the pharmacodynamic parameters [ACTH, cortisol, adrenal androgens, tetrahydrocortisols (THFs)/tetrahydrocortisone (THE) ratio], the maximum % change from baseline for each subject was subjected to ANOVA. For selected data, an additional covariate factor for the baseline was also included in the ANOVA/analysis of covariance (ANCOVA) model. Associated P‐values <0.05 for each comparison have been presented.

[2] = Pharmacokinetics in dog (i.v. and p.o.); format: in vivo; conditions: for bioavailability: p.o. 5 mg·kg^−1 vs i.v. 1 mg·kg^−1, mean ± SD
Procedure: Pharmacokinetic studies were carried out at Charles River, UK. For both i.v. and p.o. administration, compounds were prepared in 0.9% saline containing 2% DMSO (v^.v^‐1) and 38% PEG400 (v^.v^‐1). Solutions were passed through 0.22 μm filters prior to administration. Three Beagle dogs each received a single i.v. injection of compound 4 at a dose level of 1 mg·kg^−1. Following a washout period of 1 week, each animal received a single p.o. dose of compound 4 at a dose level of 5 mg·kg^−1.
After a washout period of 6 weeks, the same three dogs each received a single i.v. injection of compound 7 at a dose level of 1 mg·kg^−1. Following a washout period of 1 week, each animal received a single p.o. dose of compound 7 at a dose level of 5 mg·kg^−1.
Plasma samples were obtained up to 24 h post dose administration, and the concentration of each test item in plasma was determined using LC–MS/MS. Pharmacokinetic parameters were derived by non‐compartmental analysis using WinNonLin pharmacokinetic software.

[3] = biological target: T1, hERG K+ channel (Homo sapiens, UniProt Q12809); assay: hERG inhibition, IonWorks Quattro patch clamp; format: cell-based
T1 construct: Chinese hamster lung cell line stably expressing the full length hERG channel; host or cells: Chinese hamster lung cell line
T1 sequence (Q12809 whole entry): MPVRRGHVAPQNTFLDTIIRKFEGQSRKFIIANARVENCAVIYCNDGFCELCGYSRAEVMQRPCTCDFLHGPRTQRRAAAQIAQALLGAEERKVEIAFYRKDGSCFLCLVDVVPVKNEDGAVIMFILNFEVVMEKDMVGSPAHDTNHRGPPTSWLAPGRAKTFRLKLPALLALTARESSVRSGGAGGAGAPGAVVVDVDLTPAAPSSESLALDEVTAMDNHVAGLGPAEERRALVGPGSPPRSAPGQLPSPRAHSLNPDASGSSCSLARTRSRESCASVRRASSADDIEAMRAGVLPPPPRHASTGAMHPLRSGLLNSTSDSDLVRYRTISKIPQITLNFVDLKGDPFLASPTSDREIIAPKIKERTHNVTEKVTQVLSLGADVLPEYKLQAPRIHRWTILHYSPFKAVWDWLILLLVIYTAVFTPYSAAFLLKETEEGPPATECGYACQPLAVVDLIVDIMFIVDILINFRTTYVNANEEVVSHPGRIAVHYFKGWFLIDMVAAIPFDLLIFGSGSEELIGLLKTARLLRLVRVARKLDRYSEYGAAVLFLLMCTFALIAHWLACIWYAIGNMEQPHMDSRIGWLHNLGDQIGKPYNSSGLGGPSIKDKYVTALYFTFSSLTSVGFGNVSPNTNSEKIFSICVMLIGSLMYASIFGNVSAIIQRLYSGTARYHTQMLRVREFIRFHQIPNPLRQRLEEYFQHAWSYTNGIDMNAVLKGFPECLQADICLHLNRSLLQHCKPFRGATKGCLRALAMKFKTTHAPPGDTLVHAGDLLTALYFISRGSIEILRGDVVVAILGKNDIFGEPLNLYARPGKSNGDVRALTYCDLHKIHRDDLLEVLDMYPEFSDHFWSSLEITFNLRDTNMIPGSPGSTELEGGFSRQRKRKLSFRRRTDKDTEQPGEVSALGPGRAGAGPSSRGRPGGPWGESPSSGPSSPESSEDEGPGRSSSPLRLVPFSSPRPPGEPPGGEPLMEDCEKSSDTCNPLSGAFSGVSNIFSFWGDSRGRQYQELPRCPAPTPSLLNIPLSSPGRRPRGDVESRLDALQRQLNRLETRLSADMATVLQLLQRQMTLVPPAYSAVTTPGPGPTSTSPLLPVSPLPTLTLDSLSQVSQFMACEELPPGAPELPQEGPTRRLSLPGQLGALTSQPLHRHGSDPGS
Procedure: Testing was performed by Essen Instruments, Hertfordshire, UK. Compounds were tested for inhibition of the human ether a go‐go related gene (hERG) K+ channel in a Chinese hamster lung cell line stably expressing the full length hERG channel. Single cell ionic currents were measured in the perforated patch clamp configuration at room temperature using an IonWorks Quattro instrument. Eight‐point concentration–response curves were generated using threefold serial dilutions from the maximum final assay concentration. IC50 values were obtained from a four‐parameter logistic fit of the % inhibition data.

[4] = Plasma protein binding, dog plasma; format: in vitro ADME; conditions: mean ± SD [n]
[5] = system: 29 enzymes and 72 receptors, including the glucocorticoid and mineralocorticoid receptors; assay: Off-target diversity screen (data not shown); conditions: in words
[6] = Aqueous solubility at pH 7.4; format: physicochemical; conditions: aqueous phosphate buffer, thermodynamic from solid, pH 7.4, room temperature, mean ± SD [n]
Procedure: The concentration was quantified by HPLC with reference to a standard calibration curve. The solubility was calculated using the peak areas determined by integration of the peak found at the same retention time as the principal peak in the standard injection.

[7] = biological target: T2, human 11β‐HSD1 (Homo sapiens, UniProt P28845); assay: Inhibition of human 11β-HSD1 in stably transfected HEK293 cells; format: cell-based
T2 construct: a construct containing the full‐length gene coding for the human 11β‐HSD1 enzyme; expressed in transfected cells; host or cells: HEK293
T2 sequence (P28845 whole entry): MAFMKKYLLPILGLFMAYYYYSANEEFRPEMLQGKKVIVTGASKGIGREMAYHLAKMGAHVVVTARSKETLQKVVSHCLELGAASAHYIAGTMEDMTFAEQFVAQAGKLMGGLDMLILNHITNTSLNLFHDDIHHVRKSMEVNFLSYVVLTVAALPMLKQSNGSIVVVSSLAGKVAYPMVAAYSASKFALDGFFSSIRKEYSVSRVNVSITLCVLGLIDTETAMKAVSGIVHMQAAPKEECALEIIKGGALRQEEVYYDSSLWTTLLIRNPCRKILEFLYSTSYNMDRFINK
Procedure: Inhibition of human 11β‐HSD1 was determined in HEK293 cells stably transfected with a construct containing the full‐length gene coding for the human 11β‐HSD1 enzyme according to the protocol described by Sooy et al., 2010.

[8] = single oral dose 10 mg, mean (CV%)
[9] = single oral dose 18 mg, mean (CV%)
[10] = single oral dose 25 mg, mean (CV%)
[11] = single oral dose 35 mg, mean (CV%)

Molecule `O=C(c1csc(-c2cn[nH]c2)c1)N1C2CCC1CC(O)(c1ncccn1)C2` (stereo not drawn) [compound 4] has a half-life ([1]; oral, single doses, range across doses) of 10.5 to 18.7 h, a Cmax [1, 8] of 40.4 ng/mL and a half-life [1, 8] of 18.7 h. It also gave a Tmax ([1]; single oral dose 10 mg) of 3.5 h, a Cmax [1, 9] of 136 ng/mL and a half-life [1, 9] of 13.6 h. It also gave a Tmax ([1]; single oral dose 18 mg) of 4 h, a Cmax [1, 10] of 278 ng/mL and a half-life [1, 10] of 10.5 h. The Tmax ([1]; single oral dose 25 mg) was 4 h, the Cmax [1, 11] was 329 ng/mL and the half-life [1, 11] was 11.4 h. The Tmax ([1]; single oral dose 35 mg) was 4 h, the CL renal ([1]; oral, single doses, read-out: renal clearance (CLR)) was under 2.17 mL/min and the CL renal ([1]; single oral dose 10 mg, mean (CV%), read-out: CLR (renal clearance) (converted)) was 1.17 mL/min. For the same molecule, the CL renal ([1]; single oral dose 18 mg, mean (CV%), read-out: CLR (renal clearance) (converted)) was 2.67 mL/min, the CL renal ([1]; single oral dose 25 mg, mean (CV%), read-out: CLR (renal clearance) (converted)) was 2.17 mL/min and the CL renal ([1]; single oral dose 35 mg, mean (CV%), read-out: CLR (renal clearance) (converted)) was 2 mL/min. The “Urinary excretion, % of the respective doses” value ([1]; single doses) was at most 1.8%, the Plasma levels ([1]; single doses of 2 and 5 mg, in words) was “below the level of quantification” and the “AUC0‐t” value [1, 8] was 550 (90%) ng^.h·mL^−1. For the same molecule, the “AUC0‐∞” value [1, 8] was 856 (70%) ng^.h·mL^−1, the “Ae(0–120h) (%)” value [1, 8] was 0.53 (85%) and the “Ae(0–120h), amount excreted in urine” value [1, 8] was 52.5 (85%) μg. For the same molecule, the Oral clearance [1, 8] was 18.5 (75%) L·h^−1, the “AUC0‐t” value [1, 9] was 2291 (87%) ng^.h·mL^−1 and the “AUC0‐∞” value [1, 9] was 2581 (84%) ng^.h·mL^−1. The “Ae(0–120h) (%)” value [1, 9] was 1.67 (66%), the “Ae(0–120h), amount excreted in urine” value [1, 9] was 300 (66%) μg and the Oral clearance [1, 9] was 14.5 (90%) L·h^−1. The “AUC0‐t” value [1, 10] was 3486 (39%) ng^.h·mL^−1, the “AUC0‐∞” value [1, 10] was 3825 (35%) ng^.h·mL^−1 and the “Ae(0–120h) (%)” value [1, 10] was 1.75 (37%). The “Ae(0–120h), amount excreted in urine” value [1, 10] was 438 (37%) μg, the Oral clearance [1, 10] was 7.32 (38%) L·h^−1 and the “AUC0‐t” value [1, 11] was 4016 (30%) ng^.h·mL^−1. The “AUC0‐∞” value [1, 11] was 4261 (29%) ng^.h·mL^−1, the “Ae(0–120h) (%)” value [1, 11] was 1.43 (15%) and the “Ae(0–120h), amount excreted in urine” value [1, 11] was 501 (15%) μg. For the same molecule, the Oral clearance [1, 11] was 8.78 (28%) L·h^−1, the clearance ([2]; Beagle, plasma, iv, i.v. 1 mg·kg^−1, mean ± SD) was 4.68 ± 1.12 mL/min/kg and the half-life ([2]; Beagle, plasma, mean ± SD) was 2.79 ± 0.84 h. It also gave a Tmax ([2]; Beagle, plasma, oral, 5 mg·kg^−1) of 1 h, a bioavailability ([2]; Beagle, plasma, oral) of over 100% and a Cmax ([2]; Beagle, plasma, po, p.o. 5 mg·kg^−1, mean ± SD) of 4590 ± 546 ng/mL. For the same molecule, the bioavailability ([2]; Beagle, plasma, po) was 170 ± 40%, the “oral exposure relative to compound 7” value ([2]; p.o., in words) was “greater than threefold higher” and the IC50 ([3]; Chinese hamster lung cells expressing hERG, mean ± SD [n]) was over 30000 nM. For the same molecule, the “inhibition of the hERG channel” value ([3]; up to a concentration of 30 μM, in words) was “only marginal inhibition”, the “Plasma protein binding (% unbound), dog” value [4] was 44 ± 0 [1] % unbound and the “off‐target profile in diversity screen” value [5] was “clean off‐target profile”. It also gave a solubility [6] of 200 µg/mL (≈ 524 µM), an IC50 ([7]; HEK293 cell IC50 in ng·mL^−1, read-out: IC50 value (11β‐HSD1) expressed as mass concentration (converted)) of 23.6 nM and an IC50 ([7]; HEK293 cells, mean ± SD [n], read-out: Human 11β‐HSD1 IC50 in HEK293 cells) of 24 ± 15 nM.
